From US10077271B2, “Methods and compositions for inhibiting the interaction of menin with MLL proteins” (Kura Oncology, Inc., priority 2015, dated 2018)
pIC50: −log10 of the molar value.

Molecular target: T1, Menin MLL 4-43 (Homo sapiens, UniProt O00255)
T1 construct: 6His
T1 sequence (O00255 1-610): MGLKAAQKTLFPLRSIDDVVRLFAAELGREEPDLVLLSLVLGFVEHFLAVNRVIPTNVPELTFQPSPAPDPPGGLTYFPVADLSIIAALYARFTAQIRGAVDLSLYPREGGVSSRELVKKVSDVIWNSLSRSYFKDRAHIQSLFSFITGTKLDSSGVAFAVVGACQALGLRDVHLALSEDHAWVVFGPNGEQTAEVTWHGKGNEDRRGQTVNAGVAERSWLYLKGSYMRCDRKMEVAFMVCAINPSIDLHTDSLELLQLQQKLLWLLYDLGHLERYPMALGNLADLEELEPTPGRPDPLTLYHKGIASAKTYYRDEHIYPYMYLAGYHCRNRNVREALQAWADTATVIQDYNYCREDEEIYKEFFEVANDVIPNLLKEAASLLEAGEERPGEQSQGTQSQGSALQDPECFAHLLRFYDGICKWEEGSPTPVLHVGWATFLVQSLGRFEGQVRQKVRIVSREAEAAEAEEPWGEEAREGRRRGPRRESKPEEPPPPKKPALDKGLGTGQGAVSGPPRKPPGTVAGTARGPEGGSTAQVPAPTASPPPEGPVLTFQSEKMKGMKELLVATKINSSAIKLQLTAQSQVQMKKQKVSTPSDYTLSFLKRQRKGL
Assay: Inhibition of the menin-MLL interaction (Menin MLL 4-43 IC50)
Type: binding
Description: This example illustrates an assay effective in monitoring the binding of MLL to menin. […] A fluorescein-labeled peptide containing the high affinity menin binding motif found in MLL is produced according to Yokoyama et al. (Cell, 2005, 123(2): 207-218), herein incorporated by reference in its entirety. Binding of the labeled peptide (1.7 kDa) to the much larger menin (˜67 kDa) is accompanied by a significant change in the rotational correlation time of the fluorophore, resulting in a substantial increase in the fluorescence polarization and fluorescence anisotropy (excitation at 500 nm, emission at 525 nm).
A homogeneous time-resolve fluorescence (HTRF) assay is utilized as a secondary assay to confirm the results of the FP assay. In some embodiments, the HTRF assay is the primary assay and the FP assay is used as a secondary assay to confirm results. HTRF is based on the non-radiative energy transfer of the long-lived emission from the Europium cryptate (Eu^3+-cryptate) donor to the allophycocyanin (XL665) acceptor, combined with time-resolved detection. An Eu^3+-cryptate donor is conjugated with mouse anti-6His monoclonal antibody (which binds His-tagged menin) and XL665-acceptor is conjugate to streptavidin (which binds biotinylated MLL peptide). When these two fluorophores are brought together by the interaction of menin with the MLL peptide, energy transfer to the acceptor results in an increase in fluorescence emission at 665 nm and increased HTRF ratio (emission intensity at 665 nm/emission intensity at 620 nm). Inhibition of the menin-MLL interaction separates the donor from the acceptor, resulting in a decrease in emission at 665 nm and decreased HTRF ratio.

[1] = Formula V inhibitors of menin (Table 4J)
[2] = Formula II inhibitors of menin (Table 4G)
[3] = Formula IV inhibitors of menin (Table 4i)

pIC50 [2] | other results | Compound
 | pIC50 [1]: < 5.00 | Cc1c(CN2CCN(C(=O)c3ncnc4sc(CC(F)(F)F)cc34)CC2)ccc2[nH]c(C#N)cc12 [Compound V-3]
 | pIC50 [1]: < 5.00 | Cc1c(CN2CC(Nc3ncnc4sc(CC(F)(F)F)cc34)C2)ccc2[nH]c(C#N)cc12 [Compound V-13]
 | pIC50 [1]: < 5.00 | Cc1c(CN2CCC(Nc3ncnc4sc(CC(F)(F)F)cc34)C2)ccc2[nH]c(C#N)cc12 (stereo not drawn) [Compound V-15]
≥ 7.00 |  | Cc1c(CN2CCC(Nc3nc(N)nc4sc(CC(F)(F)F)cc34)CC2)ccc2[nH]c(C#N)cc12 [II-3]
≥ 7.00 |  | Cc1c(CN2CCC(Nc3nc(N)nc4sc(CC(F)(F)F)cc34)CC2)ccc2c1cc(C#N)n2Cc1cn[nH]c1 [II-4]
< 5.00 |  | Cc1c(CN2CCC(Nc3nc(Cl)nc4sc(CC(F)(F)F)cc34)CC2)ccc2[nH]c(C#N)cc12 [II-7]
≥ 7.00 |  | Cc1nc(NC2CCN(Cc3ccc4c(cc(C#N)n4Cc4cn[nH]c4)c3C)CC2)c2cc(CC(F)(F)F)sc2n1 [II-10]
6.00 to 7.00 |  | Cc1c(CN2CCC(Nc3nc(C(F)(F)F)nc4sc(CC(F)(F)F)cc34)CC2)ccc2[nH]c(C#N)cc12 [II-11]
5.00 to 6.00 |  | Cc1c(CN2CCC(Nc3nc(C#N)nc4sc(CC(F)(F)F)cc34)CC2)ccc2c1cc(C#N)n2Cc1cn[nH]c1 [II-14]
6.00 to 7.00 |  | C=Cc1nc(NC2CCN(Cc3ccc4[nH]c(C#N)cc4c3C)CC2)c2cc(CC(F)(F)F)sc2n1 [II-15]
6.00 to 7.00 |  | Cc1c(CN2CCC(Nc3nc(N)nc4sc(CC(F)(F)F)cc34)CC2)ccc2c1cc(C#N)n2Cc1cc[nH]n1 [II-16]
< 5.00 |  | C#Cc1nc(NC2CCN(Cc3ccc4c(cc(C#N)n4Cc4cn[nH]c4)c3C)CC2)c2cc(CC(F)(F)F)sc2n1 [II-17]
< 5.00 |  | Cc1c(CN2CCC(Nc3nc(C(F)F)nc4sc(CC(F)(F)F)cc34)CC2)ccc2c1cc(C#N)n2Cc1cn[nH]c1 [II-18]
6.00 to 7.00 |  | C=CC(=O)Nc1ccc(CCC2C(C#N)=Cc3c2ccc(CN2CCC(Nc4nc(N)nc5sc(CC(F)(F)F)cc45)CC2)c3C)cn1 (stereo not drawn) [II-19]
 | pIC50 (Formula III inhibitors of menin (Table 4h)): < 5.00 | Cc1c(CN2CCC(Nc3ncnc4sc(CC(F)(F)F)cc34)C(F)(F)C2)ccc2[nH]c(C#N)cc12 (stereo not drawn) [III-3]
 | pIC50 [3]: < 5.00 | Cc1c(CN2CCC(Nc3ncnc4sc(CC(F)(F)F)cc34)CC2)cnc2[nH]c(C#N)cc12 [IV-2]
 | pIC50 [3]: 6.00 to 7.00 | FC(F)(F)Cc1cc2c(NC3CCN(Cc4ccc5[nH]ncc5c4)CC3)ncnc2s1 [IV-8]
 | pIC50 [3]: 5.00 to 6.00 | Cc1c(CN2CCC(Nc3ncnc4sc(CC(F)(F)F)cc34)CC2)ccc2[nH]ncc12 [IV-9]
